Measurements taken from patent US4313937A, “Method for producing long-lasting analgesic effects of β-endorphin” (priority 1980, dated 1982).
“And” between values parts separate entries of the source, which are not always exact repeats. Equal values may be shown once. “Also recorded” adds a separate entry of the source.

Assays:
[1] = tested on: patients with chronic intractable pain; assay: Clinical test of analgesia in patients with chronic intractable pain secondary to metastatic malignancies (visual pain scale); format: in vivo, man
Procedure: Twenty-three patients with chronic intractable pain in the back, chest, abdomen, rectum and/or thigh regions secondary to metastatic malignancies were selected for this test.
The protocol was explained to them, and informed consent was obtained. Systemic analgesics were withheld for at least 5 hours before administration of β-endorphin. Neurological examinations and electroencephalography (EEG) were performed immediately before and every 2 hours after the injection of β-endorphin. The visual pain scale ("Adv. Neurol.", 1974, 4, 281-283) was explained to each patient; baseline pain intensity was determined 30 min. before the injection.
β-Endorphin acetate used here was prepared to high purity according to the method described in the Biochem. Biophys. Res. Commun., 74, 248-255 (1977). β-Endorphin acetate, 3 mg (equivalent to 2.5 mg of dried free β-endorphin) with 150 mg of glucose and 3 ml of distilled water (in 8 patients, cases 1-8) or with 3 ml of physiological saline and no glucose (in 7 patients, cases 9-15), was injected into the subarachnoid space (cases 1-14) or epidural space (case 15) of the spinal cord by lumbar puncture between the 2nd and 3rd lumbar vertebrae. After the injection of β-endorphin acetate, the intensity of pain, vital signs, central-nervous-system examination, EEG, electrocardiogram (ECG), pulse rate, respiratory rate, blood-gas analysis, and body temperature were monitored. Simple behavioural parameters were also observed.
In a single-randomization design, three physicians administered successively β-endorphin acetate injection or physiological saline (as a placebo) in random order to 5 patients (cases 9-12, 14). All other patients received only β-endorphin acetate, without placebo.
For the purpose of comparison, β-endorphin acetate was injected intramuscularly (cases 18-20), intravenously (cases 16 and 17), and intracerebrally (cases 20-23).
In this test, all the injections of β-endorphin to patients were sterilized through Millipore filter.

[2] = tested on: man and laboratory animals; conditions: intravenously or intramuscularly administered; cited from earlier work
[3] = tested on: patient; conditions: infusion into the cerebral ventricle; cited from earlier work
[4] = epidural space, 3 mg acetate in 3 ml physiological saline, case 15
[5] = intracerebral (cerebral ventricle), comparison, cases 21-23
[6] = subarachnoid space, 3 mg acetate in 3 ml physiological saline, single patients (cases 9-14)
[7] = subarachnoid space, 3 mg acetate with 150 mg glucose in 3 ml distilled water, single patients (cases 1-8)

β-Endorphin acetate
duration of drowsiness after injection ([1]; 12 of 15 patients, subarachnoid or epidural space): 1 to 4 h
time until pain disappeared after the injection ([1]; 13 of the 15 patients, subarachnoid or epidural space): 1 to 5 min
relief of pain reported ([1]; all 15 patients, subarachnoid or epidural space of the spinal cord): complete relief of pain
arousability ([1]; all the patients, subarachnoid or epidural space): easily arousable by verbal stimuli
duration of sleep after injection ([1]; case No. 5 (in 40 min. after injection) and case No. 7 (in 10 min. after injection)): 80 min and 110 min
perception of venepuncture and light touch ([1]; during the period of pain relief): remained intact
abnormalities in the ECG or EEG ([1]; during the procedure): No abnormalities
Pain relief after β-endorphin, Duration [1, 4]: 68 h
Pain relief after β-endorphin, Onset [1, 4]: 2 min
Remarks ([1]; epidural space, 3 mg acetate in physiological saline, case 15): Sleep
duration of relief of pain ([1]; injected into cerebral ventricle, all 3 patients): 8 to 12 h
Pain relief after β-endorphin, Duration [1, 5]: 10 h and 12 h and 8 h
Pain relief after β-endorphin, Onset [1, 5]: 3 min and 4 min
analgesic effect ([1]; intramuscular, 2 of 3 patients): no analgesic effect
analgesic effect ([1]; intravenous, one of 2 patients): no analgesic effect
duration of analgesic effect ([1]; intravenous, the other of 2 patients, considered to be placebo effect): one
duration of pain relief after the injection, average ([1]; subarachnoid or epidural space): 33.4 h
signs of respiratory depression, arterial blood-gas changes, nausea, hypotension, hypothermia, catatonia, or muscle rigidity ([1]; subarachnoid or epidural space): No signs
discomfort caused by the injection ([1]; subarachnoid or epidural space, all the patients): no discomfort
Pain relief after β-endorphin, Duration [1, 6]: 24 h. and 25 h. and 47 h. and 731/2 and 51 h. and 221/2
Pain relief after β-endorphin, Onset [1, 6]: 16 min and 2 min
Remarks ([1]; subarachnoid space, 3 mg acetate in physiological saline, single patients (cases 9-14)): Sleep; also recorded: Euphoria; also recorded: somnolence
Pain relief after β-endorphin, Duration [1, 7]: 27 h. and 271/2 and 261/2 and 291/2 and 24 h. and 36 h. and 251/2 and 281/2
Pain relief after β-endorphin, Onset [1, 7]: 5 min and 4 min and 1 min and 2 min
Remarks ([1]; subarachnoid space, 3 mg acetate with glucose, single patients (cases 1-8)): Somnolence; also recorded: Sleep; also recorded: somniloquy; also recorded: Euphoria
duration of sleep after injection ([1]; the other 6 of the 8 patients who slept): 60 to 120 min
analgesia [2]: no statistically significant analgesia
side effects [3]: induces various undersirable side effects
